The record followed here is ChEMBL document CHEMBL1140979, “Synthesis and antiamoebic activity of metronidazole thiosemicarbazone analogues” (Eur J Med Chem, 2008).

The experiment relates to Entamoeba histolytica. Description: Antiamoebic activity against Entamoeba histolytica HM1:IMSS after 72 hrs by microdilution method. In kind it is functional, organism-based.

Usually IC50 stands for the concentration at which inhibition is half-maximal. For the compound `O=[N+]([O-])c1cnc(/C=C/c2ccc(/C=N/NC(=S)NC3CCCCC3)cc2)n1CCO`, the concentration for half-maximal inhibition (IC50) was 1500 nM. `Cc1ccc(NC(=S)N/N=C/c2ccc(/C=C/c3ncc([N+](=O)[O-])n3CCO)cc2)cc1` had an IC50 of 560 nM. `O=[N+]([O-])c1cnc(/C=C/c2ccc(/C=N/NC(=S)NC3CCCCCCC3)cc2)n1CCO`: the half-inhibitory concentration (IC50) is 800 nM. In the case of `O=[N+]([O-])c1cnc(/C=C/c2ccc(/C=N/NC(=S)N3CCC(c4ccccc4)CC3)cc2)n1CCO`, inhibition was half-maximal at 1250 nM (IC50).

For the compound `O=[N+]([O-])c1cnc(/C=C/c2ccc(/C=N/NC(=S)N3CCCCCC3)cc2)n1CCO`, the half-inhibitory concentration (IC50) was 1620 nM. Regarding `CC1CCN(C(=S)N/N=C/c2ccc(/C=C/c3ncc([N+](=O)[O-])n3CCO)cc2)CC1`, 1130 nM corresponded to half-maximal inhibition (IC50). For `O=[N+]([O-])c1cnc(/C=C/c2ccc(/C=N/NC(=S)N3CCCc4ccccc43)cc2)n1CCO` the value was 1180 nM; for `O=[N+]([O-])c1cnc(/C=C/c2ccc(/C=N/NC(=S)NCc3ccccc3Cl)cc2)n1CCO`, 3670 nM. With `O=[N+]([O-])c1cnc(/C=C/c2ccc(/C=N/NC(=S)N3CCCC3)cc2)n1CCO`, the IC50 amounted to 1920 nM. Take `CN(Cc1ccccc1)C(=S)N/N=C/c1ccc(/C=C/c2ncc([N+](=O)[O-])n2CCO)cc1`: half-maximal inhibition (IC50) was put at 2340 nM. For `Cc1ccccc1NC(=S)N/N=C/c1ccc(/C=C/c2ncc([N+](=O)[O-])n2CCO)cc1` the value was 1570 nM.
